The values below come from patent US7468384B2, “Microbicidal composition” (Rohm and Haas Company, priority 2004, dated 2008).

Read-outs that look alike come from different tables or passages of the source.

Type in all cases: cell-based
One assay deals with S. aureus 6538. Briefly: Synergy test, microtiter plate high resolution MIC assay, bacterium. Conditions: S. aureus 6538, TSB. The text has this: (§1) One measure of synergism is the industrially accepted method described by Kull, F. C.; Eisman, P. C.; Sylwestrowicz, H. D. and Mayer, R. L., in Applied Microbiology 9:538-541 (1961), using the ratio determined by the formula: Qa/QA+Qb/QB=Synergy Index (“SI”) wherein: • QA=concentration of compound A (first component) in ppm, acting alone, which produced an end point (MIC of Compound A). • Qa=concentration of compound A in ppm, in the mixture, which produced an end point. • QB=concentration of compound B (second component) in ppm, acting alone, which produced an end point (MIC of Compound B). • Qb=concentration of compound B in ppm, in the mixture, which produced an end point.
(§2) When the sum of Qa/QA and Qb/QB is greater than one, antagonism is indicated. […] The lower the SI, the greater the synergy shown by that particular mixture. The minimum inhibitory concentration (MIC) of a microbicide is the lowest concentration tested under a specific set of conditions that prevents the growth of added microorganisms.
(§3) Synergy tests were conducted using standard microtiter plate assays with media designed for optimal growth of the test microorganism. Soybean Casein Digest Broth (Tryptic Soy Broth, TSB medium) or minimal salt medium supplemented with 0.2% glucose and 0.1% yeast extract (M9GY medium) was used for testing bacteria; Potato Dextrose Broth (PDB medium) was used for testing yeast and mold. In this method, a wide range of combinations of microbicides was tested by conducting high resolution MIC assays in the presence of various concentrations of MI. High resolution MICs were determined by adding varying amounts of microbicide to one column of a microtitre plate and doing subsequent ten-fold dilutions using an automated liquid handling system to obtain a series of endpoints ranging from 2 ppm to 10,000 ppm active ingredient.

The subject of assay [1] is Candida albicans (C. albicans—ATCC 10231). The assay is described as follows: Synergy test, microtiter plate high resolution MIC assay, yeast. To be noted: C. albicans 10231, PDB; for MIC: Candida albicans, ATCC10231; for Qb: alone or mixed with BIT.
Text: as §1, §2, §3
(§4) For MI combinations, the synergy of the combinations of the present invention was determined against two bacteria, Escherichia coli (E. coli—ATCC #8739) or Pseudomonas aeruginosa (P. aeruginosa—ATCC #15442), a yeast, Candida albicans (C. albicans—ATCC 10231), and a mold, Aspergillus niger (A. niger—ATCC 16404). The bacteria were used at a concentration of about 5×10^6 bacteria per mL and the yeast and mold at 5×10^5 fungi per mL. These microorganisms are representative of natural contaminants in many consumer and industrial applications. […] (bacteria).
(§5) For BIT combinations, the synergy of the combinations of the present invention was determined against a bacterium, Pseudomonas aeruginosa (P. aeruginosa—ATCC #15442), a yeast, Candida albicans (C. albicans—ATCC 10231), and a mold, Aspergillus niger (A. niger—ATCC 16404). The bacteria were used at a concentration of about 5×10^6 bacteria per mL and the yeast and mold at 5×10^5 fungi per mL. These microorganisms are representative of natural contaminants in many consumer and industrial applications. […] (yeast and mold) or 30° C. (bacteria).

The subject of assay [2] is Pseudomonas aeruginosa (P. aeruginosa—ATCC #15442). The assay is described as follows: Synergy test, microtiter plate high resolution MIC assay, bacterium. Also noted: key to SI (calculated synergy index) / SI (synergy index): SI = Qa/QA + Qb/QB (mixture vs. alone end-point concentrations). To be noted: for MIC: Pseudomonas aeruginosa, ATCC15442; for MIC / SI (synergy index) / Qb (second component at end point, MIC): 24 hours; for Qb: alone or mixed with BIT.
Text: as §1, §2, §3, §4, §5

Assay [3] concerns Aspergillus niger (A. niger—ATCC 16404). Briefly: Synergy test, microtiter plate high resolution MIC assay, mold. Also noted: key to SI (calculated synergy index) / SI (synergy index): SI = Qa/QA + Qb/QB (mixture vs. alone end-point concentrations). Conditions: A. niger 16404, PDB; for MIC: Aspergillus niger, ATCC16404, 72 h.
Text: as §1, §2, §3, §4, §5

Assay [4] relates to Escherichia coli (E. coli—ATCC #8739). Briefly: Synergy test, microtiter plate high resolution MIC assay, bacterium. To be noted: E. coli 8739, M9GY; for Qb: alone or mixed with BIT.
Text: as §1, §2
as §3, with “In this method, a wide range of combinations of microbicides was tested by conducting high resolution MIC assays in the presence of various concentrations of MI.” left out
as §4

[5] abbreviates: Table 25, sodium dehydroacetic acid with BIT, 24 hours, alone where Qa = 0.
Where [6] appears, read: glutaraldehyde concentration giving end point (MIC), 24 hours.
The mark [7] stands for this setting: synergy index BIT + glutaraldehyde, 24 hours.

Consider `N=C(N)c1ccc(OCCCCCCOc2ccc(C(=N)N)cc2)cc1.O=S(=O)(O)CCO.O=S(=O)(O)CCO` [Hexamidine diisethionate], for which the “MIC of component acting alone (QA / QB)” value in the assay with S. aureus 6538 (72 hours) is reported as 4000 ppm; in assay [1] (48 hours) it was 2000 ppm; in assay [2] (P. aeruginosa 15442, TSB, 72 hours), 2000 ppm.

Regarding `CCCCC(CC)CN1CN(CC(CC)CCCC)CC(C)(N)C1` (centres unmarked) [Hexetidine], the MIC in the assay with S. aureus 6538 (Staphylococcus aureus, 48 hours, read-out: MIC of component acting alone (QA / QB)) was 4 µg/mL; in assay [1] (72 hours, read-out: MIC of component acting alone (QA / QB)), 2000 µg/mL; in assay [2] (P. aeruginosa 15442, TSB, read-out: MIC of component acting alone (QA / QB)), 10000 µg/mL.

In the case of `CC(=O)c1c([O-])cc(C)oc1=O.[Na+]` [Sodium dehydroacetic acid], the “MIC of component acting alone (QA / QB)” value was 40 ppm in assay [1] (24 hours); 80 ppm in assay [3] (4 days); 10000 ppm in assay [2] (P. aeruginosa 15442, M9GY, 48 hours); 10000 ppm in assay [4] (24 hours). Also, the “SI (synergy index)” value in assay [1] (Table 25, 24 hours) is listed as 1.00; in assay [3] (Table 25, 1 week), 1.00; in assay [2] (Table 25, P. aeruginosa 15442, M9GY) it was 1.00; in assay [4] (Table 25, 24 hours), 1.00. For the same compound, the “Qb (second component at end point, MIC)” value in assay [1] (setting [5]) is 30 ppm; in assay [3] (Table 25, sodium dehydroacetic acid with BIT, 1 week, alone where Qa = 0), 200 ppm; in assay [2] (Table 25, sodium dehydroacetic acid with BIT, P. aeruginosa 15442, M9GY, alone where Qa = 0), 10000 ppm; in assay [4] (setting [5]), 10000 ppm.

On to `Cl/C=C\C[N+]12CN3CN(CN(C3)C1)C2.[Cl-]` [cis-1-(3-chloroallyl)-3,5,7-triaza-1-azoniaadamantane chloride], for which the MIC in assay [1] (Table 24, Cis-1-(3-chloroallyl)-3,5,7-triaza-1-azoniaadamantane chloride with BIT, 24 hours, alone where Qa = 0, read-out: Qb (second component at end point, MIC)) is 800 µg/mL; in assay [3] (Table 24, Cis-1-(3-chloroallyl)-3,5,7-triaza-1-azoniaadamantane chloride with BIT, 3 days, alone where Qa = 0, read-out: Qb (second component at end point, MIC)) it was 800 µg/mL; in assay [2] (Table 24, Cis-1-(3-chloroallyl)-3,5,7-triaza-1-azoniaadamantane chloride with BIT, P. aeruginosa 15442, M9GY, alone where Qa = 0, read-out: Qb (second component at end point, MIC)), 400 µg/mL; in assay [4] (Escherichia coli, ATCC8739, Table 24, Cis-1-(3-chloroallyl)-3,5,7-triaza-1-azoniaadamantane chloride with BIT, 48 hours, alone where Qa = 0, read-out: Qb (second component at end point, MIC)), 400 µg/mL. Also, the “SI (synergy index)” value is 1.00 in assay [1] (Table 24, 24 hours); 1.00 in assay [3] (Table 24, 3 days); 1.00 in assay [2] (Table 24, P. aeruginosa 15442, M9GY); 1.00 in assay [4] (Table 24, 48 hours).

On to `O=CCCCC=O` [glutaraldehyde], for which the Qb in assay [1] (setting [6]) is recorded as 30 ppm; in assay [2] (glutaraldehyde concentration giving end point (MIC), P. aeruginosa 15442, M9GY, 48 hours), 60 ppm; in assay [4] (setting [6]), 50 ppm. In addition, the SI in assay [1] (setting [7]) was 1.00; in assay [3] (synergy index BIT + glutaraldehyde, 3 days) it was 1.00; in assay [2] (synergy index BIT + glutaraldehyde, P. aeruginosa 15442, M9GY, 48 hours), 1.00; in assay [4] (setting [7]), 1.00. The MIC in assay [3] (glutaraldehyde concentration giving end point (MIC), alone or mixed with BIT, 3 days, read-out: Qb) is 400 µg/mL.

Regarding `O=C([O-])c1ccccc1.[Na+]` [sodium benzoate], the “SI (synergy index)” value in assay [1] (Table 26, 48 hours) is on record as 1.00; in assay [3] (Table 26, 1 week), 1.00; in assay [2] (Table 26, P. aeruginosa 15442, M9GY) it was 1.00; in assay [4] (Table 26, 24 hours), 1.00. For the same compound, the “Qb (second component at end point, MIC)” value in assay [1] (Table 26, sodium benzoate with BIT, 48 hours, alone where Qa = 0) was 2000 ppm; in assay [3] (Table 26, sodium benzoate with BIT, 1 week, alone where Qa = 0), 6000 ppm; in assay [2] (Table 26, sodium benzoate with BIT, P. aeruginosa 15442, M9GY, alone where Qa = 0), 10000 ppm; in assay [4] (Table 26, sodium benzoate with BIT, 24 hours, alone where Qa = 0), 10000 ppm.

“imidazolidinyl urea [Imidalozidinyl urea]”: the Qb in assay [1] (Imidalozidinyl urea concentration giving end point (MIC), 24 hours) was 10000 ppm; in assay [3] (Imidalozidinyl urea concentration giving end point (MIC), alone or mixed with BIT, 3 days) it was 8000 ppm; in assay [2] (Imidalozidinyl urea concentration giving end point (MIC), P. aeruginosa 15442, M9GY, 48 hours), 400 ppm; in assay [4] (Imidalozidinyl urea concentration giving end point (MIC), 48 hours), 400 ppm. In addition, the SI is reported as 1.00 in assay [1] (synergy index BIT + Imidalozidinyl urea, 24 hours); 1.00 in assay [3] (synergy index BIT + Imidalozidinyl urea, 3 days); 1.00 in assay [2] (synergy index BIT + Imidalozidinyl urea, P. aeruginosa 15442, M9GY, 48 hours); 1.00 in assay [4] (synergy index BIT + Imidalozidinyl urea, 48 hours).
